pIC50: −log10 of the molar value.
Tested on: SW1990
Assay: Antiproliferative activity against human SW1990 cells harboring KRAS G12D mutant assessed as inhibition of cell viability after 24 hrs by MTT assay
Assay type: functional, cell-based
Settings: SW1990, 24 h

## COc1ccc(C(F)(F)F)cc1-c1cc2c(N3CC4CCC(C3)N4)ncnc2s1
  pIC50: 5.68
